These results are taken from US9260395B2, “Inhibitors of viral replication, their process of preparation and their therapeutical uses” (priority 2012, dated 2016).

This test deals with NL4-3 strain of HIV-1. Briefly: Cyto-protection (CellTiter-Glo viability) assay of MT4 cells infected with NL4-3 virus; inhibition of HIV replication. Particulars: Human immunodeficiency virus 1, NL43, 120 h; concentration leading to 50% of cyto-protection; MT4 cells infected with NL4-3 virus; 5 days incubation; CellTiter-Glo; read-out: EC50. The format is cell-based. The protocol: Preparation of Virus stock of the NL4-3 strain of HIV-1 (Adachi et al, J Virol, 1986, 59(2):284-91).
The virus was prepared as described in Lopez et al (Lopez et al, Proc Natl Acad Sci USA., 2006, 103(40):14947-52, by transfecting 2×10^6 293 T cells (CRL-1573, ATCC) with following modifications: 6 μg of NL4-3 proviral DNA molecular clone were mixed with Fugene 6 transfection reagent from Roche, and used according to manufacturer's instructions. Forty eight hours later, transfected cell supernatants were harvested, filtered through 0.45-μm-pore-size filters, quantified for HIV-1 p24 antigen by using a Innotest HIV antigen mAb assay (Ingen) according to manufacturer's instructions, and used in infection experiments.
Serial dilutions of compounds to be tested were prepared in complete RPMI medium from 10 mM DMSO stock solutions, and I in 96 well Falcon 353072 Microtest[…]distributed in a volume of 20™ tissue culture plate, in order to get 0.5% DMSO final concentration in each well, after the addition of infected cells. Control wells contained also 0.5% DMSO final concentration but no compound.
MT4 cells (from the NIH AIDS Research and Reference Reagent Program) in RPMI complete medium were counted (10×10^6 cells per well in Falcon 353047 Multiwell™ 24 well) and infected for 2 hours at 37°, at a multiplicity of infection (moi) of 0.0001-0.00001. Cells were then centrifuged 3 min at 3000 rpm, and washed two times in 1 ml PBS to remove viruses that have not entered in cells. Infected cells were resuspended in complete RPMI at 1.25×10^6 cells/ml and 80 μl of infected cells were distributed in each well containing compound to be tested or control wells. The plates were then incubated at 37° for 5 days.
Assay used to measure the inhibition of HIV replication by the compounds (according to Gregg S. Jones et al., Antimicrobial Agents and Chemotherapy, 2009, 53 (3): 1194-1203).
After 5 days of incubation, microplates were equilibrated to room temperature for 30 mn and then 50 μl of CellTiter-Glo reagent (Promega Biosciences, Inc., Madison Wis., USA) were added to each well. Cell lysis was carried out at room temperature during 10 min, 150μl of lysates were transferred in Packard Optiplate 96 well, and luminescence was read on a Fluoroskan (Thermo Scientific).
The EC50, or effective concentration 50, is the concentration of compound leading to 50% of cyto-protection in a Cell-Titer-Glo® viability assay based on MT4 cells infected with NL4-3 virus (table 1).
A general note: In ATP-based viability assays light output follows the ATP content of the culture.
A word on the EC50: it is the concentration that produces a half-maximal response. As to `Cn1nc(-c2ccc(Cl)s2)c(-c2ccc3c(c2)CCCO3)c1C(OC(C)(C)C)C(=O)O` (stereo not drawn) [Example 36, 2-(tert-butoxy)-2-[3-(5-chlorothiophen-2-yl)-4-(3,4-dihydro-2H-1-benzopyran-6-yl)-1-methyl-1H-pyrazol-5-yl]acetic acid], the EC50 worked out at 2700 nM.

As to `Cn1nc(-c2cccs2)c(C2=CCC(C)(C)CC2)c1C(OC(C)(C)C)C(=O)O` (stereo not drawn) [Example 6, 2-(tert-butoxy)-2-[4-(4,4-dimethylcyclohex-1-en-1-yl)-1-methyl-3-(thiophen-2-yl)-1H-pyrazol-5-yl]acetic acid], the EC50 turned out to be 470 nM.

With `Cn1nc(C2=CCCCCC2)c(-c2ccc3c(c2)CCCO3)c1C(OC(C)(C)C)C(=O)O` (stereo not drawn) [Example 16, 2-(tert-butoxy)-2-[3-(cyclohept-1-en-1-yl)-4-(3,4-dihydro-2H-1-benzopyran-6-yl)-1-methyl-1H-pyrazol-5-yl]acetic acid], the EC50 was 870 nM.

In the case of `Cn1nc(-c2cccs2)c(-c2cc(F)c3c(c2)CCCO3)c1C(OC(C)(C)C)C(=O)O` (stereo not drawn) [Example 42, 2-(tert-butoxy)-2-[4-(8-fluoro-3,4-dihydro-2H-1-benzopyran-6-yl)-1-methyl-3-(thiophen-2-yl)-1H-pyrazol-5-yl]acetic acid], the EC50 worked out at 1800 nM.

With `C/C=C/c1nn(C)c(C(OC(C)(C)C)C(=O)O)c1-c1ccc2c(c1)CCCO2` (stereo not drawn) [Example 29, 2-(tert-butoxy)-2-[4-(3,4-dihydro-2H-1-benzopyran-6-yl)-1-methyl-3-[(1E)-prop-1-en-1-yl]-1H-pyrazol-5-yl]acetic acid], the half-maximal effective concentration (EC50) stood at 1400 nM.

Regarding `Cn1nc(CC2CCCC2)c(-c2ccc3c(c2)CCCO3)c1C(OC(C)(C)C)C(=O)O` (stereo not drawn) [Example 21, 2-(tert-butoxy)-2-[3-(cyclopentylmethyl)-4-(3,4-dihydro-2H-1-benzopyran-6-yl)-1-methyl-1H-pyrazol-5-yl]acetic acid], the EC50 was 9300 nM.

As for `Cn1nc(-c2ccsc2)c(C2=CCC(C)(C)CC2)c1C(OC(C)(C)C)C(=O)O` (stereo not drawn) [Example 5, 2-(tert-butoxy)-2-[4-(4,4-dimethylcyclohex-1-en-1-yl)-1-methyl-3-(thiophen-3-yl)-1H-pyrazol-5-yl]acetic acid], the EC50 came to 270 nM.

On to `Cn1nc(-c2ccncc2)c(C2=CCC(C)(C)CC2)c1C(OC(C)(C)C)C(=O)O` (stereo not drawn) [Example 39, 2-(tert-butoxy)-2-[4-(4,4-dimethylcyclohex-1-en-1-yl)-1-methyl-3-(pyridin-4-yl)-1H-pyrazol-5-yl]acetic acid], for which the concentration giving a half-maximal response (EC50) worked out at 5700 nM.

With `Cn1nc(-c2ccccn2)c(-c2ccc3c(c2)CCCO3)c1C(OC(C)(C)C)C(=O)O` (stereo not drawn) [Example 9, 2-(tert-butoxy)-2-[4-(3,4-dihydro-2H-1-benzopyran-6-yl)-1-methyl-3-(pyridin-2-yl)-1H-pyrazol-5-yl]acetic acid], the EC50 stood at 3700 nM.

With `Cn1nc(-c2cc3c(s2)CCC3)c(-c2ccc3c(c2)CCCO3)c1C(OC(C)(C)C)C(=O)O` (stereo not drawn) [Example 37, 2-(tert-butoxy)-2-(3-{4H,5H,6H-cyclopenta[b]thiophen-2-yl}-4-(3,4-dihydro-2H-1-benzopyran-6-yl)-1-methyl-1H-pyrazol-5-yl)acetic acid], the 50% effective concentration (EC50) is 3300 nM.

Turning to `Cn1nc(C2CCCC2)c(-c2ccc3c(c2)CCCO3)c1C(OC(C)(C)C)C(=O)O` (stereo not drawn) [Example 19, 2-(tert-butoxy)-2-[3-cyclopentyl-4-(3,4-dihydro-2H-1-benzopyran-6-yl)-1-methyl-1H-pyrazol-5-yl]acetic acid], the EC50 was 3900 nM.

Regarding `Cn1nc(-c2csc3ccccc23)c(-c2ccc3c(c2)CCCO3)c1C(OC(C)(C)C)C(=O)O` (stereo not drawn) [Example 38, 2-[3-benzo[b]thiophen-3-yl-4-(3,4-dihydro-2H-1-benzopyran-6-yl)-1-methyl-1H-pyrazol-5-yl]-2-(tert-butoxy)acetic acid], the EC50 is 2200 nM.

As to `Cn1nc(-c2ccncc2)c(-c2ccc3c(c2)CCCO3)c1C(OC(C)(C)C)C(=O)O` (stereo not drawn) [Example 40, 2-(tert-butoxy)-2-[4-(3,4-dihydro-2H-1-benzopyran-6-yl)-1-methyl-3-(pyridin-4-yl)-1H-pyrazol-5-yl]acetic acid], the EC50 was 6000 nM.

As for `CC(C)(C)OC(C(=O)O)c1c(-c2ccc3c(c2)CCCO3)c(-c2cccs2)nn1CC(F)(F)F` (stereo not drawn) [Example 34, 2-(tert-butoxy)-2-[4-(3,4-dihydro-2H-1-benzopyran-6-yl)-3-(thiophen-2-yl)-1-(2,2,2-trifluoroethyl)-1H-pyrazol-5-yl]acetic acid], the EC50 was found to be 3500 nM.

Regarding `Cn1nc(-c2ccsc2)c(-c2ccc3c(c2)CCCO3)c1C(OC(C)(C)C)C(=O)O` (stereo not drawn) [Example 4, 2-(tert-butoxy)-2-[4-(3,4-dihydro-2H-1-benzopyran-6-yl)-1-methyl-3-(thiophen-3-yl)-1H-pyrazol-5-yl]acetic acid], the EC50 amounted to 280 nM.
